Experimental data published in ChEMBL document CHEMBL3045570, “Rational herbicide design by inhibition of tryptophan biosynthesis” (Bioorg Med Chem Lett, 1999).
Active and inactive are the calls of the source. The calls are words filed in the database; no cut-off is given here.

Assays:
Amaranthus viridis = assay: Herbicidal activity against Amaranthus viridis assessed as injury at 4 kg/ha applied as spray during postemergence measured after 2 weeks; type: functional
Arabidopsis thaliana [1] = assay: Herbicidal activity against Arabidopsis thaliana seedlings assessed as injury at 8 to 16 uM; type: functional, organism-based
Arabidopsis thaliana [2] = assay: Herbicidal activity against Arabidopsis thaliana seedlings assessed as chlorosis at 125 to 1000 uM; type: functional, organism-based
Arabidopsis thaliana [3] = assay: Herbicidal activity against Arabidopsis thaliana seedlings assessed as injury at 8 to 1000 uM in presence of tryptophan; type: functional, organism-based
Chenopodium album = assay: Herbicidal activity against Chenopodium album assessed as injury at 4 kg/ha applied as spray during postemergence measured after 2 weeks; type: functional
[4] = Inhibition of Salmonella enterica subsp. enterica serovar Typhimurium tryptophan synthase alpha subunit; conditions: read-out: I50
Arabidopsis thaliana [5] = assay: Herbicidal activity against Arabidopsis thaliana seedlings assessed as injury at 31 to 1000 uM; type: functional, organism-based
[6] = biological target: T1, Tryptophan synthase alpha /beta chains (Escherichia coli K-12, UniProt P0A877+P0A879); assay: Binding affinity to tryptophan synthase alpha2/beta2 complex in Escherichia coli K-12 by equlibrium dialysis method; type: protein-complex assay
T1 sequence (P0A879 whole entry): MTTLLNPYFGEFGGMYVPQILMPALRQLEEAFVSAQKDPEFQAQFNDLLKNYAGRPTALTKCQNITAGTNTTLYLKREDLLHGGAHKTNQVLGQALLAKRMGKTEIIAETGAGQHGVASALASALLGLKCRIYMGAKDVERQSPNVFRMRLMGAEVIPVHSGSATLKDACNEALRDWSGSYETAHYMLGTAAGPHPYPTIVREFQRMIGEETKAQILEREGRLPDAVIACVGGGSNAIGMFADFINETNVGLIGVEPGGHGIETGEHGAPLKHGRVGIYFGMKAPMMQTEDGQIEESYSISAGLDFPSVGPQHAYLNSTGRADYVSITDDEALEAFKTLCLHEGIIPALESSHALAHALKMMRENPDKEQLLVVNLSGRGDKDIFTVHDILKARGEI
T1 sequence (P0A877 whole entry): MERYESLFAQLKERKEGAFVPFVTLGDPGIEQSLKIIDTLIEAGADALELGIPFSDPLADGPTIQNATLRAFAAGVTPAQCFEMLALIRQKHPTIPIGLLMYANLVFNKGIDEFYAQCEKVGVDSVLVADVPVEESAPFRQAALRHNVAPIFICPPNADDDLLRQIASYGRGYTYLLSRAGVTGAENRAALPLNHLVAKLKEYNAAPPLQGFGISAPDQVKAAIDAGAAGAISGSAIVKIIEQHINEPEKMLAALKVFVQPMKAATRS

Arabidopsis thaliana [7] = assay: Herbicidal activity against Arabidopsis thaliana seedlings assessed as injury at 8 to 1000 uM; type: functional, organism-based
Arabidopsis thaliana [8] = assay: Herbicidal activity against Arabidopsis thaliana seedlings assessed as chlorosis at 8 to 1000 uM; type: functional, organism-based

Row | SMILES | Activity (Amaranthus viridis) | Activity (Arabidopsis thaliana [1]) | Activity (Arabidopsis thaliana [2]) | Activity (Arabidopsis thaliana [3]) | Activity (Chenopodium album) | IC50 [4] [nM] | Activity (Arabidopsis thaliana [5]) | Ki [6] [nM] | Activity (Arabidopsis thaliana [7]) | Activity (Arabidopsis thaliana [8])
1 | O=P(O)(O)CCCCSc1ccccc1O | <=80% | inactive | Active | inactive | <=80% | 130 | Active | – | – | –
2 | O=P(O)(O)OCCCc1c[nH]c2ccccc12 | – | – | – | – | – | 5000 | – | 15000 | – | –
3 | O=P(O)(O)CCCc1c[nH]c2ccccc12 | – | – | – | – | – | 12500 | – | – | – | –
4 | O=P(O)(O)/C=C/CCSc1ccccc1O | <=80% | – | – | inactive | <=80% | 570 | – | – | Active | Active
5 | O=P(O)(O)CCCCc1c[nH]c2ccccc12 | – | – | – | – | – | 20000 | – | – | – | –
6 | Nc1ccccc1SCCCCP(=O)(O)O | <=65% | – | – | – | <=65% | 400 | – | – | – | –
7 | O=P(O)(O)/C=C/CC[S+]([O-])c1ccccc1O (centres undefined) | <=80% | – | – | inactive | <=80% | 440 | – | – | Active | Active
8 | O=P(O)(O)/C=C/CCS(=O)(=O)c1ccccc1O | inactive | – | – | – | inactive | 360 | – | – | – | –
